Data as given in patent publication US8343475B2, “Small cationic antimicrobial peptides” (priority 2006, dated 2013).
Values after ≈ are worked out from the molar mass of the structure shown. Residues, ends and D or L forms follow the SMILES beside them.

Columns and labels:
[1] = system: wild-type Salmonella enterica ssp. typhimurium; format: cell-based
Procedure, shortened: (§1)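 Broth microdilution in Mueller Hinton medium; peptides serially diluted at 10× in 0.01% acetic acid with 0.2% BSA, then added to polypropylene plates. Inoculum 2-7×10^5 CFU/ml from overnight culture, incubated overnight at 37° C. MIC = lowest concentration showing no growth.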

Escherichia coli UB1005 = format: cell-based; conditions: indolicidin substitution variants (Table 4)
Procedure, shortened: as §1

[2] = system: lab isolate of Candida albicans; format: cell-based; conditions: lab isolate of
Procedure, shortened: as §1

[3] = system: Staphylococcus aureus ATCC25923; format: cell-based; conditions: ATCC25923
Procedure, shortened: as §1

[4] = system: Enterococcus faecalis ATCC29212; format: cell-based; conditions: ATCC29212
Procedure, shortened: as §1

[5] = system: clinical isolate of Staphylococcus epidermidis; format: cell-based; conditions: clinical isolate of
Procedure, shortened: as §1

[6] = system: LPS-stimulated TNFα production in THP-1 cells; assay: Suppression of P. aeruginosa LPS-stimulated TNFα production (ELISA); format: cell-based, human; conditions: 10 ng/ml P. aeruginosa LPS, peptides at 10, 20 and 50 μg/ml (FIG. 13)
Protocol: FIG. 12. Assessment of the ability of peptides to suppress P. aeruginosa LPS (10 ng/ml)-stimulated TNFα production in THP1 cells. Presented results are the mean values for 4 wells performed on 2 separate occasions. The x-axis number labeling is the amount of each peptide in μg/ml for the corresponding peptides.
FIG. 13. Suppression of inflammatory responses by peptides. Monocyte/macrophage-like adherent THP-1 cells were stimulated with 10 ng/ml P. aeruginosa LPS and the resulting TNFα response measured. Peptides were added at 10, 20 and 50 μg/ml. The observed TNF-release was measured by ELISA and related to the 100% value of the untreated (without peptide) cells.
Cytotoxicity and TNFα suppression assay. THP1 cells were cultured in RPMI 1640 medium (supplemented with 10% (v/v) FCS, 1% L-glutamine, and […] sodium pyruvate) in E-toxa-clean (Sigma-Aldrich, Oakville, Ontario, Canada)-washed, endotoxin-free bottle. THP1 cells were counted and 250 μl per well of […] were transferred into a 96 well tissue cultured treated polystyrene microtiterplate (Beckton Dickinson, Franklin Lakes, USA). In addition PMA were added (1.3 nM) and the cells were incubated for three days. After three days the medium were exchanged and Pseudomonas aeruginosa LPS and the peptides were added. The incubation time was four hours and the supernatant was frozen at −20° C. The cells were stained with Tryphan Blue for 2 minutes and washed with PBS two times. The viability of the cells was determined by counting the stained cells over the unstained. The supernatent was used to measure the TNFα production by an ELISA (eBioscience, San Diego, USA) following the manufactures protocol.
LPS from P. aeruginosa strain H103 was highly purified free of proteins and lipids using the Darveau-Hancock method. Briefly, P. aeruginosa was grown overnight in LB broth at 37° C. Cells were collected and washed and the isolated LPS pellets were extracted with a 2:1 chloroform:methanol solution to remove contaminating lipids. Purified LPS samples were quantitated using an assay for the specific sugar 2-keto-3-deoxyoctosonic acid (KDO assay) and then resuspended in endotoxin-free water (Sigma-Aldrich).
Human monocytic cells, THP-1, were obtained from American type culture collection, ATCC® (TIB-202) and were grown in suspension in RPMI-1640 media (Gibco®, Invitrogen™ Life technologies, Burlington, ON), supplemented with 10% (v/v) heat inactivated fetal bovine serum (FBS), 2 mM L-glutamine and 1 mM sodium pyruvate (all from Invitrogen Life Technologies). Cultures were maintained at 37° C. in a humidified 5% (v/v) CO2 incubator up to a maximum of six passages. THP-1 cells at a density of 1×10^6 cells/ml were treated with 0.3 μg/ml phorbol 12-myristate 13-acetate (PMA; Sigma-Aldrich Canada, Oakville ON) for 24 hours, inducing plastic-adherent cells that were further rested in complete RPMI-1640 medium for an additional 24 hours prior to stimulation with various treatments including P. aeruginosa LPS (10 ng/ml) with or without peptides for 24 hours after which supernatants were collected and TNFα assessed by ELISA.
THP-1 cells were stimulated with LPS (10 ng/ml) with or without peptide (10 or 100 μg/ml) for 4 hours as indicated in the results section. Following incubation of the cells under various treatment regimens, the tissue culture supernatants were centrifuged at 1000×g for 5 min, then at 10,000×g for 2 min to obtain cell-free samples. Supernatants were aliquoted and then stored at −20° C. prior to assay for various cytokines. TNFα secretion was detected with a capture ELISA (eBioscience and BioSource International Inc., CA, USA respectively).

[7] = system: Pseudomonas aeruginosa PAO1 strain H103; format: cell-based; conditions: PAO1
Procedure, shortened: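 Modified broth microdilution MIC in Mueller Hinton medium, peptides diluted in 0.01% acetic acid/0.2% BSA, polypropylene plates. Inoculum 2-7×10^5 CFU/ml, overnight at 37 °C; MIC is the lowest concentration with no visible growth.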

[8] = system: CXCL1 (Gro-α) release by human PBMC; assay: Chemokine induction in PBMC (capture ELISA); format: cell-based; conditions: background (196) subtracted
Procedure, shortened: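 Human PBMC from healthy donors' heparinised blood (Ficoll), 7.5×10^5 cells treated with 20 or 100 μg/ml peptide for 24 h at 37° C, 5% CO2. Cell-free supernatants assayed for CXCL1 by capture ELISA.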

[9] = system: multidrug resistant Pseudomonas maltophilia ATCC13637; format: cell-based
Procedure, shortened: (§2)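 Broth microdilution in Mueller Hinton medium, peptides serially diluted in 0.01% acetic acid with 0.2% BSA in polypropylene plates. Inoculum 2-7×10^5 CFU/ml, incubated overnight at 37° C. MIC is the lowest concentration with no visible growth.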

[10] = system: ESBL E. coli clinical strain 64771; format: cell-based; conditions: ESBL clinical strain 64771
Procedure, shortened: as §2

[11] = system: ESBL Klebsiella pneumonia clinical strain 63575; format: cell-based
Procedure, shortened: as §2

[12] = system: clinical isolates of MRSA; format: cell-based, Staphylococcus aureus
Procedure, shortened: (§3)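 Modified broth microdilution in Mueller Hinton medium, peptides serially diluted in 0.01% acetic acid with 0.2% BSA in polypropylene plates. Inoculum 2-7×10^5 CFU/ml, overnight incubation at 37° C; MIC taken as lowest concentration with no visible growth.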

[13] = system: MCP-3 release by human PBMC; assay: Chemokine induction in PBMC (capture ELISA); format: cell-based; conditions: background (6) subtracted
Procedure, shortened: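 Human PBMC from healthy donors (Ficoll-isolated), 7.5×10^5 cells at 0.75–1×10^6 cells/ml, treated with peptides at 20 or 100 μg/ml for 24 h at 37° C, 5% CO2. MCP-3 in cell-free supernatants measured by capture ELISA.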

[14] = system: Liverpool Epidemic Strains; format: cell-based, Pseudomonas aeruginosa
Procedure, shortened: as §3

[15] = system: MCP-1 release by human PBMC; assay: Chemokine induction in PBMC (capture ELISA); format: cell-based; conditions: background (204) subtracted
Procedure, shortened: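 Heparinized blood from healthy volunteers; Ficoll-isolated human PBMC (7.5×10^5) treated with peptides at 20 or 100 μg/ml for 24 hours at 37° C, 5% CO2. Cell-free supernatants assayed for MCP-1 by capture ELISA.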

S. aureus = assay: Mouse model of aggressive bacterial infection (intraperitoneal); format: in vivo; conditions: 1.6×10^10 CFU IP; 4 mg/kg peptide IP four hours post infection; total infection time 24 hours; saline controls 100% death
Protocol: FIG. 10. Ability of new antimicrobial peptides HHC-10 and HHC-36 to protect mice against Staph aureus infections. Bacterial loads in the peritoneal lavage from individual mice after 24 hours of infection are shown (solid circles). Dead animals were assigned the highest colony forming unit (CFU) count obtained in the experiment. The solid line represents the arithmetic mean for each group.
FIG. 18. […] Mice were treated with 1.6×10^10 CFU of S. aureus intraperitoneally. Four hours post infection they received a dose of 8 mg/kg peptide IP. The infection was allowed to progress for 4 or 24 hours after which mice were euthanaised and plate counts of staphylococci surviving in the peritoneum were determined. Bacterial loads in the peritoneal lavage from individual mice after 24 hours of infection are shown (solid circles). The solid line represents the arithmetic mean for each group.
FIG. 19. […] Mice were treated with 1.6×10^10 CFU of S. aureus intraperitoneally. Four hours post infection they received a dose of 8 mg/kg peptide IP. The infection was allowed to progress for 4 or 24 hours after which mice were euthanaised and plate counts of staphylococci surviving in the peritoneum were determined. Bacterial loads in the peritoneal lavage from individual mice after 24 hours of infection are shown (solid circles). The solid line represents the arithmetic mean for each group.
To further confirm this, a mouse model of aggressive bacterial infection, widely used to assess antibiotic efficacy, was utilized. Mice were treated with 1.6×10^10 CFU IP. Four hours post infection they received a dose of 4 mg/kg peptide IP. The infection was allowed to progress for 20 more hours, for a total infection time of 24 hours.
These immunomodulatory activities led to protection against infections by S. aureus. Briefly a mouse model of aggressive bacterial infection, widely used to assess antibiotic efficacy, was utilized. […] The infection was allowed to progress for 4 or 24 hours after which mice were euthanaised and plate counts of staphylococci surviving in the peritoneum were determined.

ESBL E. cloacae = format: cell-based, Enterobacter cloacae
Procedure, shortened: as §3

| SMILES | MIC S. typhi [1] | MIC E. coli (Escherichia coli UB1005) | MIC C. albicans [2] | MIC S. aureus [3] | MIC E. faecalis [4] | MIC S. epi. [5] | ability to inhibit TNFα responses compared with indolicidin [6] | MIC P. aerug [7] | also measured |
| --- | --- | --- | --- | --- | --- | --- | --- | --- | --- |
| CC[C@H](C)[C@H](N)C(=O)N[C@@H](CC(C)C)C(=O)N1CCC[C@H]1C(=O)N[C@@H](Cc1c[nH]c2ccccc12)C(=O)N[C@@H](CCCCN)C(=O)N[C@@H](Cc1c[nH]c2ccccc12)C(=O)N1CCC[C@H]1C(=O)N[C@@H](Cc1c[nH]c2ccccc12)C(=O)N[C@@H](Cc1c[nH]c2ccccc12)C(=O)N[C@@H](CCCCN)C(=O)N[C@@H](Cc1c[nH]c2ccccc12)C(=O)N[C@@H](CCCNC(=N)N)C(=O)N[C@@H](CCCNC(=N)N)C(N)=O [HH117, ILPWKWPWWKWRR] (H-ILPWKWPWWKWRR-NH2; N-terminus assumed) | 31 µg/mL (≈ 16 µM) | 8 µg/mL (≈ 4.13 µM) | 16 µg/mL (≈ 8.26 µM) | 8 µg/mL (≈ 4.13 µM) | 31 µg/mL (≈ 16 µM) | 2 µg/mL (≈ 1.03 µM) | slightly better or equivalent than indolicidin | 16 µg/mL (≈ 8.26 µM) |  |
| CC[C@H](C)[C@H](N)C(=O)N[C@@H](CC(C)C)C(=O)N1CCC[C@H]1C(=O)N[C@@H](Cc1c[nH]c2ccccc12)C(=O)N[C@@H](Cc1c[nH]c2ccccc12)C(=O)N[C@@H](Cc1c[nH]c2ccccc12)C(=O)N1CCC[C@H]1C(=O)N[C@@H](Cc1c[nH]c2ccccc12)C(=O)N[C@@H](Cc1c[nH]c2ccccc12)C(=O)N1CCC[C@H]1C(=O)N[C@@H](Cc1c[nH]c2ccccc12)C(=O)N[C@@H](CCCNC(=N)N)C(=O)N[C@@H](CCCNC(=N)N)C(N)=O [HH235, ILPWWWPWWPWRR] (H-ILPWWWPWWPWRR-NH2; N-terminus assumed) | >84 µg/mL | >84 µg/mL | 84 µg/mL (≈ 42.8 µM) | 20 µg/mL (≈ 10.2 µM) | 84 µg/mL (≈ 42.8 µM) | 5 µg/mL (≈ 2.55 µM) | slightly better or equivalent than indolicidin | >84 µg/mL |  |
| CC[C@H](C)[C@H](NC(=O)[C@H](Cc1c[nH]c2ccccc12)NC(=O)[C@H](CCCCN)NC(=O)[C@H](Cc1c[nH]c2ccccc12)NC(=O)[C@H](Cc1c[nH]c2ccccc12)NC(=O)[C@H](CCCNC(=N)N)NC(=O)[C@@H](N)CCCCN)C(=O)N[C@@H](CCCNC(=N)N)C(=O)N[C@@H](Cc1c[nH]c2ccccc12)C(N)=O [HHC10, KRWWKWIRW] (H-KRWWKWIRW-NH2; N-terminus assumed) |  |  |  |  |  |  |  |  | Chemokine induction Gro-α ([8]; 20 μg/ml peptide): -11 pg/mL; Chemokine induction Gro-α ([8]; 100 μg/ml peptide): 2 pg/mL; MIC [3]: 3 µM (≈ 4.33 µg/mL); MIC [4]: 12 µM (≈ 17.3 µg/mL); MIC [9]: 0.4 µM (≈ 0.578 µg/mL); MIC [10]: 1.5 µM (≈ 2.17 µg/mL); MIC [11]: 6 µM (≈ 8.66 µg/mL); MIC [12]: 1.5 µM (≈ 2.17 µg/mL); Chemokine induction MCP-3 ([13]; 20 μg/ml peptide): -1 pg/mL; Chemokine induction MCP-3 ([13]; 100 μg/ml peptide): 49 pg/mL; MIC [14]: 0.8 µM (≈ 1.16 µg/mL); Chemokine induction MCP-1 ([15]; 20 μg/ml peptide): 48 pg/mL; Chemokine induction MCP-1 ([15]; 100 μg/ml peptide): 3210 pg/mL; mice protected (S. aureus): 40%; MIC (ESBL E. cloacae): 3 µM (≈ 4.33 µg/mL) |
